Assay [1] concerns Total ATXN3 (tATXN3) protein. Put plainly: Endogenous Total ATXN3 (tATXN3) Protein Assay (MSD immunoassay of cell lysates). The format is cell-based. The conditions noted are these: average IC50, total ATXN3 protein in cell lysate after 48 h with compound (Table 1). In outline: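 Cells in DMEM/10% FBS were plated at 10,000 per well onto 7-point, 3.16-fold compound dilutions in duplicate for 48 h at 37° C, then lysed. Total ATXN3 in lysates was measured by MSD sandwich immunoassay: mouse anti-ATXN3 capture, rabbit anti-ATXN3 detection, SULFO-TAG anti-rabbit. Average IC50 was reported in star bins.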

Assay [2] concerns ATXN3 pre-mRNA. The assay is described as follows: RT-qPCR Assay to Quantify Exon 4 Skipping in ATXN3 pre-mRNA in Cells. The class given is cell-based. The settings on record: percent exon 4 skipping in ATXN3 pre-mRNA, RT-qPCR of cell lysates; average IC50. The gist of the method: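 Cells plated at 10,000/well onto a 7-point, 3.16-fold DMSO dilution series (duplicates), incubated 24 h at 37 °C, then lysed. Exon 4 skipping measured by one-step RT-qPCR (48 °C RT, 40 cycles); IC50 interpolated from dose-response fit of percent skipping.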
(In general: Real-time PCR tracks product formation cycle by cycle.)

As usually defined, the IC50 is the concentration needed to halve the response being measured.

In the case of `Cc1c([C@H]2CC=CC[C@@H]2N)sc2c(NCc3ccsc3)cc(Cl)nc12` [Compound 247, 2-((1S,6S)-6-aminocyclohex-3-en-1-yl)-5-chloro-3-methyl-N-(thiophen-3-ylmethyl)thieno[3,2-b]pyridin-7-amine], the IC50 in assay [1] and in assay [2] was 0.03 to 0.3 µM in each case.
Take `Cc1c([C@@H]2CCCCC[C@H]2N)sc2c(NCc3cccs3)cc(Cl)nc12` [Compound 83, 2-((1R,2R)-2-aminocycloheptyl)-5-chloro-3-methyl-N-(thiophen-2-ylmethyl)thieno[3,2-b]pyridin-7-amine]: the IC50 in assay [1] and in assay [2] was greater than 1 µM in each case.
On to “2-((3R,4R)-3-aminotetrahydro-2H-pyran-4-yl)-3-bromo-5-chloro-N-(thiophen-2-ylmethyl)thieno[3,2-b]pyridin-7-amine and 2-((3S,4S)-3-aminotetrahydro-2H-pyran-4-yl)-3-bromo-5-chloro-N-(thiophen-2-ylmethyl)thieno[3,2-b]pyridin-7-amine [Compound 146]”, for which the IC50 in assay [1] and in assay [2] was greater than 1 µM throughout.
Consider `N[C@@H]1CCC[C@H]1c1sc2c(NCc3ccco3)cc(Cl)nc2c1Cl` [Compound 114, 2-((1R,2R)-2-aminocyclopentyl)-3,5-dichloro-N-(furan-2-ylmethyl)thieno[3,2-b]pyridin-7-amine], for which the IC50 in assay [1] and in assay [2] was greater than 1 µM each time.
As for `N[C@H]1CCCO[C@@H]1c1sc2c(NCc3ccco3)cc(Cl)nc2c1Br` [Compound 115, 2-((2S,3S)-3-aminotetrahydro-2H-pyran-2-yl)-3-bromo-5-chloro-N-(furan-2-ylmethyl)thieno[3,2-b]pyridin-7-amine], the IC50 in assay [1] and in assay [2] was no more than 0.03 µM each time.
As to `CC#CCNc1cc(Cl)nc2c(C)c([C@H]3CCCC[C@@H]3N)sc12` [Compound 363, 2-((1S,2S)-2-aminocyclohexyl)-N-(but-2-yn-1-yl)-5-chloro-3-methylthieno[3,2-b]pyridin-7-amine], the IC50 in assay [1] and in assay [2] was 0.03 to 0.3 µM each time.
On to `N[C@@H]1COCC[C@H]1c1sc2c(NCc3cccs3)cc(Cl)nc2c1Br` [Compound 140, 2-((3S,4R)-3-aminotetrahydro-2H-pyran-4-yl)-3-bromo-5-chloro-N-(thiophen-2-ylmethyl)thieno[3,2-b]pyridin-7-amine], for which the IC50 in assay [1] and in assay [2] was 0.3 to 1 µM each time.
As for “6-((3R,4S)-3-aminotetrahydro-2H-pyran-4-yl)-2,7-dichloro-N-(furan-2-ylmethyl)thieno[3,2-d]pyrimidin-4-amine and 6-((3S,4R)-3-aminotetrahydro-2H-pyran-4-yl)-2,7-dichloro-N-(furan-2-ylmethyl)thieno[3,2-d]pyrimidin-4-amine [Compound 354]”, the half-inhibitory concentration (IC50) in assay [1] and in assay [2] was 0.03 to 0.3 µM each time.
Consider `N[C@H]1CCCC[C@H]1c1sc2c(NCc3cccs3)cc(Cl)nc2c1Br` [Compound 53, 2-((1R,2S)-2-aminocyclohexyl)-3-bromo-5-chloro-N-(thiophen-2-ylmethyl)thieno[3,2-b]pyridin-7-amine], for which the half-inhibitory concentration (IC50) in assay [1] and in assay [2] was 0.3 to 1 µM each time.
For `Cn1c([C@@H]2CCOC[C@H]2N)c(Br)c2nc(Cl)cc(NCc3cccs3)c21` [Compound 384, 2-((3S,4R)-3-aminotetrahydro-2H-pyran-4-yl)-3-bromo-5-chloro-1-methyl-N-(thiophen-2-ylmethyl)-1H-pyrrolo[3,2-b]pyridin-7-amine], the IC50 in assay [1] and in assay [2] was 0.03 to 0.3 µM in each case.
Consider `N[C@H]1CCCCCC[C@@H]1c1sc2c(NCc3cccs3)cc(Cl)nc2c1Br` [Compound 99, 2-((1S,2S)-2-aminocyclooctyl)-3-bromo-5-chloro-N-(thiophen-2-ylmethyl)thieno[3,2-b]pyridin-7-amine], for which the IC50 in assay [1] and in assay [2] was 0.03 to 0.3 µM each time.
Consider “2-((3R,4S)-4-aminotetrahydro-2H-pyran-3-yl)-3-bromo-5-chloro-N-(thiophen-2-ylmethyl)thieno[3,2-b]pyridin-7-amine and 2-((3S,4R)-4-aminotetrahydro-2H-pyran-3-yl)-3-bromo-5-chloro-N-(thiophen-2-ylmethyl)thieno[3,2-b]pyridin-7-amine [Compound 204]”, for which the IC50 in assay [1] and in assay [2] was no more than 0.03 µM throughout.
With `N[C@H]1CCCCCC[C@@H]1c1sc2c(NCc3cccs3)cc(Cl)nc2c1Cl` [Compound 96, 2-((1S,2S)-2-aminocyclooctyl)-3,5-dichloro-N-(thiophen-2-ylmethyl)thieno[3,2-b]pyridin-7-amine], the IC50 in assay [1] and in assay [2] was 0.03 to 0.3 µM in each case.
As to `Cc1c([C@@H]2CC=CC[C@H]2N)sc2c(NCc3cccs3)cc(Cl)nc12` [Compound 220, 2-((1R,6R)-6-aminocyclohex-3-en-1-yl)-5-chloro-3-methyl-N-(thiophen-2-ylmethyl)thieno[3,2-b]pyridin-7-amine], the IC50 in assay [1] and in assay [2] was no more than 0.03 µM throughout.
With `N[C@@H]1CCNCC[C@H]1c1sc2c(NCc3cccs3)cc(Cl)nc2c1Br.N[C@H]1CCNCC[C@@H]1c1sc2c(NCc3cccs3)cc(Cl)nc2c1Br` (mixture of isomers) [Compound 147, 2-((4R,5R)-5-aminoazepan-4-yl)-3-bromo-5-chloro-N-(thiophen-2-ylmethyl)thieno[3,2-b]pyridin-7-amine and 2-((4S,5S)-5-aminoazepan-4-yl)-3-bromo-5-chloro-N-(thiophen-2-ylmethyl)thieno[3,2-b]pyridin-7-amine], the IC50 in assay [1] and in assay [2] was greater than 1 µM each time.
Consider `CC#Cc1c([C@@H]2CCCC[C@H]2N)n(C(F)F)c2c(NCc3ccco3)nc(Cl)nc12` [Compound 318, 6-((1R,2R)-2-aminocyclohexyl)-2-chloro-5-(difluoromethyl)-N-(furan-2-ylmethyl)-7-(prop-1-yn-1-yl)-5H-pyrrolo[3,2-d]pyrimidin-4-amine], for which the concentration for half-maximal inhibition (IC50) in assay [1] and in assay [2] was 0.03 to 0.3 µM in each case.
On to `N[C@H]1CCCC[C@@H]1c1sc2c(NCc3ccco3)nc(Cl)nc2c1Br` [Compound 68, 6-((1S,2S)-2-aminocyclohexyl)-7-bromo-2-chloro-N-(furan-2-ylmethyl)thieno[3,2-d]pyrimidin-4-amine], for which the IC50 in assay [1] and in assay [2] was no more than 0.03 µM in each case.
`N[C@H]1CCOC[C@@H]1c1sc2c(NCc3ccccc3)cc(Cl)nc2c1Cl` [Compound 218, 2-((3R,4S)-4-aminotetrahydro-2H-pyran-3-yl)-N-benzyl-3,5-dichlorothieno[3,2-b]pyridin-7-amine]: the concentration for half-maximal inhibition (IC50) in assay [1] and in assay [2] was no more than 0.03 µM in each case.
As for `N[C@@H]1CCCCC[C@H]1c1sc2c(NCc3cccs3)cc(Cl)nc2c1-c1ccccc1` [Compound 142, 2-((1R,2R)-2-aminocycloheptyl)-5-chloro-3-phenyl-N-(thiophen-2-ylmethyl)thieno[3,2-b]pyridin-7-amine], the IC50 in assay [1] and in assay [2] was greater than 1 µM each time.
Consider `N[C@@H]1CCCO[C@H]1c1sc2c(NCc3cccs3)cc(Cl)nc2c1Cl` [Compound 16, 2-((2R,3R)-3-aminotetrahydro-2H-pyran-2-yl)-3,5-dichloro-N-(thiophen-2-ylmethyl)thieno[3,2-b]pyridin-7-amine], for which the IC50 in assay [1] and in assay [2] was greater than 1 µM each time.
